Structures are written as SMILES.

This series is described as follows: Test B: In-vitro competitive aortic tissue binding assay. To be noted: 100 μM compound pre-incubated overnight at 37° C. with rat aortic homogenate, competition with 100 μM [14C] WO2010/128324 Ex. 3. As to the method:
To assist the design of DPP1 inhibitors with a decreased risk of binding to elastin rich tissues, such as the aorta, the in-vitro competitive aortic binding assay disclosed below (Test B) was developed to facilitate the selection process.
Test B: In-vitro competitive aortic tissue binding assay Aortic homogenate was prepared from the thoracic aortae of Han Wistar rats. Freshly isolated thoracic aortae were frozen, and later thawed and stripped of non-elastic material. […] Homogenate concentration was adjusted to 30 mg/mL in Puck's saline, and aliquots were stored at −80° C. until use. Positive and negative control compounds and test compounds were made up to 100 mM in DMSO, and added to 1 mL aliquots of aortic homogenate in Puck's saline for a final concentration of 100 μM. Homogenate samples were pre-incubated with test compounds at 37° C., rotating, overnight. [^14C]4-Amino-N-[(1S)-1-cyano-2-(4′-cyanobiphenyl-4-yl)ethyl]tetrahydro-2H-pyran-4-carboxamide was then added to all samples to a final concentration of 100 μM, and samples were incubated at 37° C., rotating, for a further 2 h. Protein was precipitated from each sample by the addition of 10 mL acetone, pre-chilled to −20° C. Samples were left overnight at −20° C. to allow complete precipitation. Precipitate was pelleted by centrifugation at 4,500×g at 4° C. for 20 min, an aliquot of supernatant was removed for analysis, and the remainder of the supernatant discarded. Precipitate was washed by resuspension in 10 mL 80% methanol in distilled water, and re-pelleted by centrifugation at 4,500×g at 4° C. for 20 min. […] After final wash, precipitate was air-dried, and dissolved overnight in 1 mL NCSII Tissue Solubiliser. 1 mL aliquots of supernatants were added to 5 mL Ultima Gold scintillation fluid (Perkin Elmer, MA, U.S.A.), and 1 mL solubilised pellets were added to 5 mL Hionic-Fluor scintillation fluid (Perkin Elmer, MA, U.S.A.). Radioactivity of samples was determined on a Beckman LS6500 multipurpose scintillation counter (Beckman Coulter, IN, U.S.A.). […] Duplicate samples were tested for each compound on each experimental occasion, and at least two experiments were run for each test compound. […] 1-way ANOVA and Bonferroni's multiple comparison tests were performed to calculate significance of differences from vehicle control.
Consider `Cn1c(=O)oc2ccc(-c3ccc(C[C@@H](C#N)NC(=O)[C@@H]4CNCCCO4)cc3)cc21` [Example 2, (2S)-N-{(1S)-1-Cyano-2-[4-(3-methyl-2-oxo-2,3-dihydro-1,3-benzoxazol-5-yl)phenyl]ethyl}-1,4-oxazepane-2-carboxamide], for which the “Aortic Tissue Binding” value is “No binder”. For the molecule `N#Cc1ccc(-c2ccc(C[C@@H](C#N)NC(=O)[C@@H]3CCCCN3)cc2)cc1` [WO2009/074829 (Example 24)], the “Aortic Tissue Binding” value is given as “Binder”. Take `Cn1c(=O)oc2ccc(-c3ccc(C[C@@H](C#N)NC(=O)[C@@H]4CCCCN4)cc3)cc21` [WO2009/074829 (Example 96)]: the “Aortic Tissue Binding” value was “Medium binder”. On to `N#Cc1ccc(-c2ccc(C[C@@H](C#N)NC(=O)C3(N)CCOCC3)cc2)cc1` [WO2010/128324 (Ex. 3), 4-amino-N-[(1S)-1-cyano-2-(4′-cyanobiphenyl-4-yl)ethyl]tetrahydro-2H-pyran-4-carboxamide], for which the “Aortic Tissue Binding” value is recorded as “Strong binder (reference)”. The value for `Cn1c(=O)oc2ccc(-c3ccc(C[C@@H](C#N)NC(=O)C4(N)CCOCC4)cc3)cc21` [WO2010/128324 (Example 17)] was “Strong binder”.

Values taken from patent publication US11673871B2, “Certain (2S)-N-[(1S)-1-cyano-2-phenylethyl]-1,4-oxazepane-2-carboxamides as dipeptidyl peptidase 1 inhibitors” (AstraZeneca AB, priority 2014, dated 2023).
